Measurements taken from publication PMC7367369, “A small library of chalcones induce liver cancer cell death through Akt phosphorylation inhibition” (Scientific Reports, 2020).

Legend:
Assay type in all cases: cell-based, human
[1] = test system: pRb (Ser807/811) in Mahlavu cells; assay: Western blot, phosphorylated Rb protein levels; conditions: IC50 concentrations, 24 h
Procedure: (§1) Figure 4 Proteins targeted by the compounds. Human liver cancer cells (Mahlavu) were treated with the IC50 concentrations of the selected compounds or DMSO control for 24 h. […] (B–D) Quantification of the results using ImageJ software. (E) Schematic representation of the molecular mechanism of action of the compounds. Blocked signaling is crossed.
(§2) In the literature, it was shown that the anti-cancer effect of chalcones on uterus leiomyoma cells was through an increase in p21 protein[35]. Thus we also examined the levels of p21 in our cells. Furthermore, p21 is also a downstream element of Akt pathway. […] Therefore, the effect on Rb protein, which is also a downstream element of p21, was investigated in the presence of the chalcones 1, 9 and 11.
(§3) Poorly differentiated liver cancer cell line Mahlavu cells were cultured in 100 mm culture dish for 24 h. […] Anti-PARP antibody (Cell Signaling, 9532), pAkt (Ser473) antibody (Cell Signaling, 9271), Akt antibody (Cell Signaling, 9272), pNFkB-p65 (Ser468) antibody (Snat Cruz, sc101750), p21 antibody (Millipore, 05345), pRb (Ser807/811) antibody (Cell Signaling, 9308), Rb antibody (Santa Cruz, sc102), actin antibody (Sigma, A5441) and calnexin antibody (Sigma, C4731) were used as primary antibodies. Anti-rabbit (6154) and anti-mouse (0168) secondary antibodies were used. ImageJ tool ([42]) used for protein band intensity comparison. […]

[2] = test system: pNFkB-p65 (Ser468) in Mahlavu cells; assay: Western blot, phosphorylation of NFkB-p65; conditions: IC50 concentrations, 24 h
Procedure: as §1
NFB is a transcription factor which is a fundamental component of inflammation pathway. This protein has also crucial roles in cell proliferation and apoptosis, thus cancer progression. […] Since the inflammation is one of the hallmarks of cancer, we also investigated the effect of our compounds on NFB protein. […] This form of NFB is the activated form which translocates into the nucleus to function as a transcription factor.
as §3, with “used.” for “used. ImageJ tool ([42]) used for protein band intensity comparison.”

[3] = test system: PARP cleavage in Huh7 and Mahlavu cells; assay: Western blot, PARP cleavage (marker of apoptosis); conditions: 24 h
Procedure: Human liver cancer cells Mahlavu and Huh7 were treated with the compounds according to the IC50 values obtained from RT-CES experiments or DMSO controls for 72hr. […] We further assessed the effects of the selected chalcones 1, 9, and 11 on the cell cycle progression analysis of liver cancer cells. Human liver cancer cells Mahlavu and Huh7 were treated with the compounds according to the IC50 values obtained from RT-CES for 72 h. Then the DNA in the treated cells were stained with propidium iodide and analyzed with fluorescent-activated cell sorter. […] In order to confirm the induction of apoptosis in human liver cancer cells treated with the chalcones, cleavage of PARP protein (marker of apoptosis) was investigated.
Figure 3 Cell death induced by the chalcones. (A) Nuclear staining of the liver cancer cells treated with the chalcones. Human liver cancer cells (Huh7 and Mahlavu) were treated with the IC50 concentrations of the chalcones 1, 9, 11. After 72 h of incubation with the compounds or DMSO control, Hoechst (33258) staining was performed. Images were taken with fluorescent microscope (×40). Due to the strong cytotoxic activities of the chalcones the number of the cells in objective area was much less than DMSO controls. (B) Cell cycle distribution of liver cancer cells. Huh7 and Mahlavu cells were treated for 72 h with IC50 concentrations of the compounds or DMSO control. […]

[4] = test system: p21 in Mahlavu cells; assay: Western blot, p21 protein levels; conditions: IC50 concentrations, 24 h
Procedure: as §1, §2, §3

| Structure (SMILES) | phosphorylated Rb protein levels [1] | phosphorylation of NFB-p65 at Ser468 [2] | PARP cleavage [3] | p21 protein levels [4] |
| --- | --- | --- | --- | --- |
| O=C(/C=C/c1ccc(Cl)cc1)c1ccccc1 [compound 11] | decreased significantly | decreased significantly | PARP cleavage was present significantly | increased significantly |
| O=C(/C=C/c1ccccc1)c1ccccc1 [compound 9] | decreased significantly | decreased significantly | PARP cleavage was present significantly | increased significantly |
